Laboratory results reported in ChEMBL document CHEMBL5726350, “Histone demethylase inhibitors” (2017).
pIC50: −log10 of the molar value.

Experiments:
[1] = target: T1, Lysine-specific demethylase 4C (Homo sapiens, UniProt Q9H3R0); assay: Enzymatic Assay: The ability of test compounds to inhibit the activity of JMJD2C was determined in 384-well plate format under the following reaction conditions: 0.3 nM JMJD2C, 300 nM H3K9me3-biotin labeled peptide (Anaspec cat #64360), 2 μM alpha-ketoglutaric acid in assay buffer of 50 mM HEPES, pH7.3, 0.005% Brij35, 0.5 mM TCEP, 0.2 mg/ml BSA, 50 μM sodium L-ascorbate, and 2 μM ammonium iron(II) sulfate. Reaction product was determined quantitatively by TR-FRET after the addition of detection reagent Phycolink Streptavidin-allophycocyanin (Prozyme) and Europium-anti-di-methylated histone H3 lysine 9 (H3K9me2) antibody (PerkinElmer) in the presence of 5 mM EDTA in LANCE detection buffer (PerkinElmer) at a final concentration of 50 nM and 1 nM, respectively.The assay reaction was initiated by the following: 2 μl of the mixture of 900 nM H3K9me3-biotin labeled peptide and 6 μM alpha-ketoglutaric acid with 2 μl of 11-point serial diluted inhibitor in 3% DMSO were added to each well of the plate, followed by the addition of 2 μl of 0.9 nM JMJD2C to initiate the reaction. The reaction mixture was incubated at room temperature for 30 minutes, and terminated by the addition of 6 μl of 5 mM EDTA in LANCE detection buffer containing 100 nM Phycolink Streptavidin-allophycocyanin and 2 nM Europium-anti-H3K9me2 antibody. […]
T1 sequence (Q9H3R0 whole entry): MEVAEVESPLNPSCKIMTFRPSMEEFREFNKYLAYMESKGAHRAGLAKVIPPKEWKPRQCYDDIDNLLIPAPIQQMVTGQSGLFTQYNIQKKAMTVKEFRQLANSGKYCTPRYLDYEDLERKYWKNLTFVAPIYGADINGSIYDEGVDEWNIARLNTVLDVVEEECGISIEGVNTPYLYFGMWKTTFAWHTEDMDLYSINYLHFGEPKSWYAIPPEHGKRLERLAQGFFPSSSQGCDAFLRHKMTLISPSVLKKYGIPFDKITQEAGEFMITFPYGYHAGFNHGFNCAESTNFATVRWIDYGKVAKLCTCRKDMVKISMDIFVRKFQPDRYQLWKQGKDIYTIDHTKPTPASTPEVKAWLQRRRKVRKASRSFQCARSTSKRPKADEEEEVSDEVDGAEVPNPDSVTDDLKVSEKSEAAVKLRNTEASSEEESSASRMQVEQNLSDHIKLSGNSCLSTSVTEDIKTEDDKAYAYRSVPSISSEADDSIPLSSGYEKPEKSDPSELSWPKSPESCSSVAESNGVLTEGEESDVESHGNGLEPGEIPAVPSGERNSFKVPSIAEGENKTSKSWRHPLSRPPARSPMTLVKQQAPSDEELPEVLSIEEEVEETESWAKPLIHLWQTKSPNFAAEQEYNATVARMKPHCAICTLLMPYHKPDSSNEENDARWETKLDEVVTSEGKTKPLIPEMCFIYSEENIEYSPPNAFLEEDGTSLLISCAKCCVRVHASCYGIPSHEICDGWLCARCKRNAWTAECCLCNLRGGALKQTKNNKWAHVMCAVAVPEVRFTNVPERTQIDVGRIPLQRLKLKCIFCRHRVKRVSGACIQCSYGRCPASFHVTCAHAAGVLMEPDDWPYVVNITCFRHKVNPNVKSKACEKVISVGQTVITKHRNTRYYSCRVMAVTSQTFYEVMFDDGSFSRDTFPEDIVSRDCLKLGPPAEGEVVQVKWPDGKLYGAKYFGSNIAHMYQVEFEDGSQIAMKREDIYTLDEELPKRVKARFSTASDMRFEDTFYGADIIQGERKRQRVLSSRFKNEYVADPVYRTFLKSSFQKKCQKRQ

[2] = target: Lysine-specific demethylase 5A (Homo sapiens, UniProt P29375); assay: Enzymatic Assay: The enzymatic assay of Jarid1A activity is based upon Time Resolved-Fluorescence Resonance Energy Transfer (TR-FRET) detection. The ability of test compounds to inhibit the activity of Jarid1A was determined in 384-well plate format under the following reaction conditions: 1 nM Jarid1A, 300 nM H3K4me3-biotin labeled peptide (Anaspec cat #64357), 2 μM alpha-ketoglutaric acid in assay buffer of 50 mM HEPES, pH7.3, 0.005% Brij35, 0.5 mM TCEP, 0.2 mg/ml BSA, 50 μM sodium L-ascorbate, and 2 μM ammonium iron(II) sulfate. Reaction product was determined quantitatively by TR-FRET after the addition of detection reagent Phycolink Streptavidin-allophycocyanin (Prozyme) and Europium-anti-mono- or di-methylated histone H3 lysine 4 (H3K4me1-2) antibody (PerkinElmer) in the presence of 5 mM EDTA in LANCE detection buffer (PerkinElmer) at a final concentration of 25 nM and 1 nM, respectively.The assay reaction was initiated by the following: 2 μl of the mixture of 900 nM H3K4me3-biotin labeled peptide and 6 μM alpha-ketoglutaric acid with 2 μl of 11-point serial diluted inhibitor in 3% DMSO was added to each well of plate, followed by the addition of 2 μl of 3 nM Jarid1A to initiate the reaction.
Sequence of Lysine-specific demethylase 5A (P29375 whole entry): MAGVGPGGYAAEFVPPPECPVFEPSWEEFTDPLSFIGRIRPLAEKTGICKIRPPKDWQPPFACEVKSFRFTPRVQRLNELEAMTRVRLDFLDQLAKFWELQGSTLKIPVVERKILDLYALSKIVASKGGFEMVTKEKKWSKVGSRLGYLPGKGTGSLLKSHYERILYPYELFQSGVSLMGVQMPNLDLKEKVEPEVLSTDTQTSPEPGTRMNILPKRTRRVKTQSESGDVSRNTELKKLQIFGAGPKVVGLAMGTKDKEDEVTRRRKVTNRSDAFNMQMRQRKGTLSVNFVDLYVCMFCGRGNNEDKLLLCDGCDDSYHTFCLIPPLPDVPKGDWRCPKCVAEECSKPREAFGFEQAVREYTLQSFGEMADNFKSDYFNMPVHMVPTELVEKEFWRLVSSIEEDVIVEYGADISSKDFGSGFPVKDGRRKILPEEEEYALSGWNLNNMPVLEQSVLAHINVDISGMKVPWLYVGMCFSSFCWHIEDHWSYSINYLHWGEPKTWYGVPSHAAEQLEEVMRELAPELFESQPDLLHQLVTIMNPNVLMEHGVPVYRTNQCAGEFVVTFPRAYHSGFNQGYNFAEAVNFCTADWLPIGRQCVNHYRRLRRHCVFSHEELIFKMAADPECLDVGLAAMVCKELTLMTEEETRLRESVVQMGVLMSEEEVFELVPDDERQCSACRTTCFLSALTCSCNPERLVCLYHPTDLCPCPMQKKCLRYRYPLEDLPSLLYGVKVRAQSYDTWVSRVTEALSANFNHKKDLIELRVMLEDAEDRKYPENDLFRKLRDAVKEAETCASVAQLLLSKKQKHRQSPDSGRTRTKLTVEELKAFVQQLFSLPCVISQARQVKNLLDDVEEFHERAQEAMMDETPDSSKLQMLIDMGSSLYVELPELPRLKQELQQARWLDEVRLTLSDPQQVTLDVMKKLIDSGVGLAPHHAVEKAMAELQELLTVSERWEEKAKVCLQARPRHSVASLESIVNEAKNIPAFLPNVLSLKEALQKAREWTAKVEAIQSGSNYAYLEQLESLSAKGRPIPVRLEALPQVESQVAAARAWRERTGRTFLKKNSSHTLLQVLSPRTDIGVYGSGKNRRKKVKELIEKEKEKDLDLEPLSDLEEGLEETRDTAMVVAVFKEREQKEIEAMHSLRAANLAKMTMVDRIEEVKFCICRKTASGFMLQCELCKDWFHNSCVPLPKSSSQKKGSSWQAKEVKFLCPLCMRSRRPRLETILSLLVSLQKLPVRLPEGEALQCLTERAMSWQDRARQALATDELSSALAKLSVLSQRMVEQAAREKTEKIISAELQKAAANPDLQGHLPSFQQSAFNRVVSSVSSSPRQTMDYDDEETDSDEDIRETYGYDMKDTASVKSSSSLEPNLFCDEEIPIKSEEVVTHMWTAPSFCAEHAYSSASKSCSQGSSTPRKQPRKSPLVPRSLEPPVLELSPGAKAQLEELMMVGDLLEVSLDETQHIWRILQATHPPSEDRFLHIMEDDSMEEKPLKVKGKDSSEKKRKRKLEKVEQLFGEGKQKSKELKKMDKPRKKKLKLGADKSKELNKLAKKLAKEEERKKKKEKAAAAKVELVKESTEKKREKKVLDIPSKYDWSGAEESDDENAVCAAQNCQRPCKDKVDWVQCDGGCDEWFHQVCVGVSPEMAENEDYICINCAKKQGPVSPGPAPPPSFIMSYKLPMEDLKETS

[3] = target: Lysine-specific demethylase 5B (Homo sapiens, UniProt Q9UGL1); assay: Enzymatic Assay: The ability of test compounds to inhibit the activity of Jarid1B was determined in 384-well plate format under the following reaction conditions: 0.8 nM Jarid1B, 300 nM H3K4me3-biotin labeled peptide (Anaspec cat #64357), 2 μM alpha-ketoglutaric acid in assay buffer of 50 mM HEPES, pH7.3, 0.005% Brij35, 0.5 mM TCEP, 0.2 mg/ml BSA, 50 μM sodium L-ascorbate, and 2 μM ammonium iron(II) sulfate. Reaction product was determined quantitatively by TR-FRET after the addition of detection reagent Phycolink Streptavidin-allophycocyanin (Prozyme) and Europium-anti-mono- or di-methylated histone H3 lysine 4 (H3K4me1-2) antibody (PerkinElmer) in the presence of 5 mM EDTA in LANCE detection buffer (PerkinElmer) at a final concentration of 25 nM and 1 nM, respectively.The assay reaction was initiated by the following: 2 μl of the mixture of 900 nM H3K4me3-biotin labeled peptide and 6 μM alpha-ketoglutaric acid with 2 μl of 11-point serial diluted inhibitor in 3% DMSO was added to each well of the plate, followed by the addition of 2 μl of 2.4 nM Jarid1B to initiate the reaction. The reaction mixture was incubated at room temperature for 30 minutes, and terminated by the addition of 6 μl of 5 mM EDTA in LANCE detection buffer containing 50 nM Phycolink Streptavidin-allophycocyanin and 2 nM Europium-anti-H3K4me1-2 antibody.
Sequence of Lysine-specific demethylase 5B (Q9UGL1 whole entry): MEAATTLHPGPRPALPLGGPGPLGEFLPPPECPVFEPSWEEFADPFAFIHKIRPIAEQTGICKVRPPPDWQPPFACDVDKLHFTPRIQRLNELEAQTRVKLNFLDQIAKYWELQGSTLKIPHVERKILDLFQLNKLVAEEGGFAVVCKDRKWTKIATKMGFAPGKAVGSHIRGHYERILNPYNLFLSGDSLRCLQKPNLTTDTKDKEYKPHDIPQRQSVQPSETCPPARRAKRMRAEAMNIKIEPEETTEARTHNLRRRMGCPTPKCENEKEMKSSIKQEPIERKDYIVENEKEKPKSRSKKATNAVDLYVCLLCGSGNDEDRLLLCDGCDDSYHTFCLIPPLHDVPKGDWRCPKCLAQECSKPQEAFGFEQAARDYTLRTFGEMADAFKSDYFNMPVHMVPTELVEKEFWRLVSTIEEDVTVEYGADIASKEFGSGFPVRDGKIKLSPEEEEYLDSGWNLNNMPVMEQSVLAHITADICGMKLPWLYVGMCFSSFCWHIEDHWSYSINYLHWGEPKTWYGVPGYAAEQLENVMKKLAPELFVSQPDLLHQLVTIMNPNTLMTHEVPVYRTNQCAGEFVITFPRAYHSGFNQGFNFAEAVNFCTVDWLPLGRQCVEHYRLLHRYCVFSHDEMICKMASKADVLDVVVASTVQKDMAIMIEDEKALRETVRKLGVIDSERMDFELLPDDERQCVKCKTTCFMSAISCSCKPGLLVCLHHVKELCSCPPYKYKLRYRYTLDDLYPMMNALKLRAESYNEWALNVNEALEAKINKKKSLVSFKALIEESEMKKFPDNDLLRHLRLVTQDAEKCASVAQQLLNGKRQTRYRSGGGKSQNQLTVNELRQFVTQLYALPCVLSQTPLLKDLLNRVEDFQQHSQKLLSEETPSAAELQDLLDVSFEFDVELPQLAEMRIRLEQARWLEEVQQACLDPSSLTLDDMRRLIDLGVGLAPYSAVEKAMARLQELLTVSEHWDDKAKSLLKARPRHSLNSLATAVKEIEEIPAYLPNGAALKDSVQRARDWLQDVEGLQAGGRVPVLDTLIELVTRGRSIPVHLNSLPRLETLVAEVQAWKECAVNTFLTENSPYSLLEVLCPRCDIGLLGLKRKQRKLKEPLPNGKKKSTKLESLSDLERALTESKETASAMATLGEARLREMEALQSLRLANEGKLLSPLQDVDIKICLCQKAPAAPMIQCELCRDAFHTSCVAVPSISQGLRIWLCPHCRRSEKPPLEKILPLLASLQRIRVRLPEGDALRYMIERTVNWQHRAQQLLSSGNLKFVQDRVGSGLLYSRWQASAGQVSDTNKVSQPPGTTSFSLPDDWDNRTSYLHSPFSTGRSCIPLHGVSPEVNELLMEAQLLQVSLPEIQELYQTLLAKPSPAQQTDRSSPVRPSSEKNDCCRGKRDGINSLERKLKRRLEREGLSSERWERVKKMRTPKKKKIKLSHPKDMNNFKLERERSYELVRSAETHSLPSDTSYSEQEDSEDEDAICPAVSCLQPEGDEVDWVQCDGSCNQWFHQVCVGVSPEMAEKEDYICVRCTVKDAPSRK

pIC50 [1]: > 7.00
pIC50 [2]: > 7.00
pIC50 [3]: > 7.00
Structure (SMILES): CC1(C)CCN(C(=O)c2cc3nccc(C(=O)O)c3[nH]2)CC1
